Reference: US6667173B2, “Nucleic acids encoding platelet derived growth factor-alpha receptors” (The Schepens Eye Research Institute, priority 2000, dated 2003)
“Also recorded” adds a separate entry of the source.

Experiments:
[1] = tested on: FCX^2, Fα and Fβ cells; test: Collagen gel contraction assay of cells with no PDGFRs, αPDGFR or βPDGFR; type: cell-based, mouse; conditions: 50 ng/ml PDGF-BB; 24, 48, 72 hours
Description: The contraction assay was based on a previously described reference, Skuta, G. et al. (1999) J. Biol. Chem. 274:30163, with the following modifications. Fα cells were suspended in 1.5 mg/ml of neutralized collagen I (Cohesion vitrogen 100, Palo Alto, Calif.) at a density of 10^6 cells/ml, and were transferred into the 24-well plate (Falcon, Franklyn Lakes, N.J.) that had been preincubated with phosphate-buffer saline (PBS) with 5 mg/ml of bovine serum albumin (BSA) overnight. The gel was solidified by incubating at 37° C. for 90 minutes, and then the well was flooded with DMEM+5 mg/ml of BSA supplemented with an amount of vitreous such that the final concentration of vitreous in the culture medium was 1, 5 or 20%. […] The media was replaced every 24 hours and the gel diameter was measured after 48 hours. The extent of contraction was calculated by subtracting the diameter of the well at 48 hours from the initial diameter (15 mm). […]
The experiments described in Example 9 (FIG. 7B) were repeated with cells that express the βPDGFR (Fβ) instead of the αPDGFR, or no PDGFRs (FCX^2). Contraction was scored at the 48 hours time point. […]
To more directly test whether TGFβ could moderate contraction of fibroblasts via the αPDGFR, the response of the three cell lines to purified TGFβ was examined. […] The gel diameter was measured after 24, 48, or 72 hours, and the media was replaced every day.

[2] = target: T1, αPDGFR (Homo sapiens, UniProt P16234); test: Tyrosine phosphorylation of the αPDGFR in TGFβ- or PDGF-treated F cells; type: cell-based; conditions: Fα cells; 50 ng/ml PDGF-BB 5 minutes or 1 ng/ml TGFβ1 5 minutes to 8 hours
T1 construct: expressed in transfected cells; host or cells: F cells (SV-40 immortalized mouse embryo fibroblasts lacking both PDGFRs), giving Fα
Description: To show the effect of TGFβ on αPDGFR, the tyrosine phosphorylation state of the αPDGFR was assayed in TGFβ-treated cells. The F cells with or without PDGFR were grown to 80% confluent and then starved with DMEM containing 1% FBS for 20 hours. Cells were exposed at 37° C. for 5 minutes to either 50 ng/ml of PDGF-BB; with 1 ng/ml of TGFβ1 for 5 minutes, 1 hour, 2 hours, 4 hours, 6 hours or 8 hours; or were left unstimulated. After treatment the cells were washed twice with H/S (20 mM Hepes, pH 7.4, 150 mM NaCl) and then lysed in EB (10 mM Tris-HCl, pH 7.4, 5 mM EDTA, 50 mM NaCl, 50 mM NaF, 1% Triton-X 100, 0.1% BSA, 20 μg/ml aprotinin, 2 mM Na3VO4, 1 mM phenylmethylsulfonyl fluoride; PMSF). Lysates were centrifuged for 15 minutes at 13,000×g, the pellet was discarded and the soluble fraction was used as the total cell lysate. The protein concentration was measured using protein assay kit (Pierce, Rockfield, Ill.) following the manufacture's instructions.
Receptors were immunoprecipitated from the soluble fraction with the 27P antibody (described above). Immune complex was bound to formalin-fixed membranes of Staphylococcus aureus, spun through an EB sucrose gradient, and washed twice with EB, then with PAN (10 mM Pipes, pH 7.0, 100 mM NaCl, 1% aprotinin)+0.5% Nonidet P-40 (NP-40), and finally with PAN. The samples were resuspended in PAN before using for kinase assay or western blotting. […]

[3] = tested on: GST-PLCγ; test: In vitro kinase assay of immunoprecipitated mutant αPDGFRs with exogenous substrate; type: biochemical; conditions: 292 immunoprecipitates, [32P]-γ ATP, 30° C., 5 min
Description: Mutant αPDGFRs were selectively immunoprecipitated with the 292 antibody, and samples representing 2×10^5 cells from 292 antibodies were subjected to an in vitro kinase assay. Immunoprecipitates were preincubated with 2 μg of GST protein for 10 min at 0° C., then 2 μg of Glutathione S-transferase fusion phospholipase C-gamma (GST-PLCγ, an exogenous substrate, 10 μCi of γ-[^32P] ATP (DuPont NEN Research Products, Boston, Mass.), and universal kinase buffer (UKB; 20 mM Pipes, pH 7.0, 10 mM MnCl2, 20 μg/ml aprotinin) were added. The samples were incubated at 30° C. for 5 min. The proteins were separated by 7.5% sodium dodecyl sulfate-polyacrylamide gel electrophoresis (SDS-PAGE), the gel was dried, and the radiolabeled protein was detected by autoradiography.

[4] = tested on: SHP-2; test: Co-immunoprecipitation of SHP-2 with αPDGFR mutants in F cells; type: cell-based, mouse; conditions: 50 ng/ml PDGF-BB, 5 minutes
Description: (§1) The ability of the αPDGFR mutants to undergo ligand dependent tyrosine phosphorylation and to associate with signaling enzymes was then tested. F cells expressing various αPDGFR mutants were grown to subconfluence and serum starved overnight. Cells were either left resting (−) or stimulated with 50 ng/ml PDGF-BB (+) for 5 minutes, and lysed. The αPDGFR was immunoprecipitated with αPDGFR antibody, as described above, and the resulting immunoprecipitates were resolved by 7.5% SDS-PAGE and transferred onto Immobilon. The segment of the blot containing the αPDGFR was first blotted with anti-phosphotyrosine antibodies, then stripped and reprobed with an anti-αPDGFR antibody. Portions of the membrane that contained the proteins of the appropriate molecular mass were immunoblotted for PLCγ, the regulatory subunit of PI3K (p85), or SHP-2. Crude rabbit anti-p85 antibody is from Dr. A. Toker (Beth Israel Hospital/Harvard Medical School, Boston, Mass.). The monoclonal antibodies against PLCγ and SHP-2 were purchased from Upstate Biotechnology Inc.

[5] = tested on: F cells; test: Collagen gel contraction assay of F cells expressing αPDGFR mutants; type: cell-based, mouse; conditions: PDGF-BB (50 ng/ml), 48 hours
Description: The contraction assay was based on a previously described reference, Skuta, G. et al. (1999) J. Biol. Chem. 274:30163, with the following modifications. Fα cells were suspended in 1.5 mg/ml of neutralized collagen I (Cohesion vitrogen 100, Palo Alto, Calif.) at a density of 10^6 cells/ml, and were transferred into the 24-well plate (Falcon, Franklyn Lakes, N.J.) that had been preincubated with phosphate-buffer saline (PBS) with 5 mg/ml of bovine serum albumin (BSA) overnight. The gel was solidified by incubating at 37° C. for 90 minutes, and then the well was flooded with DMEM+5 mg/ml of BSA supplemented with an amount of vitreous such that the final concentration of vitreous in the culture medium was 1, 5 or 20%. The gels were incubated at 37° C. with 5% CO2. The initial gel diameter was 15 mm. The media was replaced every 24 hours and the gel diameter was measured after 48 hours. The extent of contraction was calculated by subtracting the diameter of the well at 48 hours from the initial diameter (15 mm). Each experimental condition was assayed in triplicate, and at least three independent experiments were performed. Unpaired t-test was performed to detect statistic difference in contraction assay.
To determine the signaling pathways that drive contraction, cells expressing the αPDGFR mutants were subjected to the collagen gel contraction assay described above. Accordingly, F cells expressing the indicated αPDGFRs were subjected to the collagen gel assay in the presence of buffer, PDGF-BB (50 ng/ml), TGFβ1 (1 ng/ml), or FBS (10%). The data presented are the mean±standard deviation measured at the 48 hours time point. Each experimental condition was assayed in triplicate, and at least 3 independent experiments were performed.

[6] = tested on: rabbit eyes; test: Rabbit PVR model: F cells expressing αPDGFR mutants injected into the vitreous; type: in vivo; conditions: up to 28 days after the surgery
Description: PVR was induced in the rabbit eyes as previously described (Andrews, A. et al. (1999) Invest. Ophthalmol. Vis. Sci. 40:2683 and Nakagawa, M. et al. (1995) Invest. Ophthalmol. Vis. Sci. 36:2388). Briefly, gas vitrectomy was performed by injecting 0.4 ml of expanding perfluoropropane gas (C3F8) into the vitreous cavity 4 mm posterior to the corneal limbus under anesthetical condition. Three days later, the rabbits were anesthetized and the pupils were dilated. 0.1 ml DMEM containing 1×10^5 of RCFs expressing empty vector or αPDGFR mutant were injected into the vitreous cavity together with 0.1 ml of PRP using 30 G needle. Ten rabbits underwent surgery for each cell population expressing the empty vector or the truncated, E587K, T665M, D818N, or V859M αPDGFR mutants. One rabbit in the D818N group died just after the surgery, therefore the total number is 9 for this group. The retinal status was evaluated with an indirect ophthalmoscope fitted with a +30 D fundus lens at 1, 4, 7, 14, 21, and 28 days after the surgery. The PVR was graded from 0 through 5 according to the Fastenberg score. Fastenberg, D. M. et al. (1982) Am. J. Ophthalmol. 93:565. The grading is as follows: 0; no abnormality, 1; vitreous strand, 2; traction of the retina, 3; partial retinal detachment (less than 2 quadrant), 4; extended (more than 2 quadrant) but not total retinal detachment, 5; total retinal detachment. All surgeries were performed under aseptic conditions and pursuant to the regulation of the ARVO Statement for the Use of Animals in Ophthalmic and Vision Research. Only the left eye of each rabbit was used for the experiments.
An important component of PVR is the traction force that is generated when cells of the epiretinal membrane contract. To test if the signaling enzymes that are required for contraction in the in vitro assays also participate in PVR, the cells expressing the various αPDGFR mutants, described in the previous Examples, were assayed in a rabbit PVR model, described above. In this model, rabbits first undergo gas vitrectomy, and then cells are coinjected with […]. The formation of an epiretinal membrane and retinal detachment is observed in living animals over 28 days.
Briefly, PVR was induced by introducing F cells expressing the indicated αPDGFR into the vitreous of the rabbit eyes. The PVR score was evaluated up to 28 days after the surgery according to the classification described above. The mean value and standard error of the scores in a group were indicated. Each group contained 9 or 10 rabbits; the response to parental F cells was previously reported (Andrews et al., supra), and was included here for comparison purposes.

[7] = tested on: PLCγ; test: Co-immunoprecipitation of PLCγ with αPDGFR mutants in F cells; type: cell-based, mouse; conditions: 50 ng/ml PDGF-BB, 5 minutes
Description: as §1

T1 sequence (P16234 24-1089): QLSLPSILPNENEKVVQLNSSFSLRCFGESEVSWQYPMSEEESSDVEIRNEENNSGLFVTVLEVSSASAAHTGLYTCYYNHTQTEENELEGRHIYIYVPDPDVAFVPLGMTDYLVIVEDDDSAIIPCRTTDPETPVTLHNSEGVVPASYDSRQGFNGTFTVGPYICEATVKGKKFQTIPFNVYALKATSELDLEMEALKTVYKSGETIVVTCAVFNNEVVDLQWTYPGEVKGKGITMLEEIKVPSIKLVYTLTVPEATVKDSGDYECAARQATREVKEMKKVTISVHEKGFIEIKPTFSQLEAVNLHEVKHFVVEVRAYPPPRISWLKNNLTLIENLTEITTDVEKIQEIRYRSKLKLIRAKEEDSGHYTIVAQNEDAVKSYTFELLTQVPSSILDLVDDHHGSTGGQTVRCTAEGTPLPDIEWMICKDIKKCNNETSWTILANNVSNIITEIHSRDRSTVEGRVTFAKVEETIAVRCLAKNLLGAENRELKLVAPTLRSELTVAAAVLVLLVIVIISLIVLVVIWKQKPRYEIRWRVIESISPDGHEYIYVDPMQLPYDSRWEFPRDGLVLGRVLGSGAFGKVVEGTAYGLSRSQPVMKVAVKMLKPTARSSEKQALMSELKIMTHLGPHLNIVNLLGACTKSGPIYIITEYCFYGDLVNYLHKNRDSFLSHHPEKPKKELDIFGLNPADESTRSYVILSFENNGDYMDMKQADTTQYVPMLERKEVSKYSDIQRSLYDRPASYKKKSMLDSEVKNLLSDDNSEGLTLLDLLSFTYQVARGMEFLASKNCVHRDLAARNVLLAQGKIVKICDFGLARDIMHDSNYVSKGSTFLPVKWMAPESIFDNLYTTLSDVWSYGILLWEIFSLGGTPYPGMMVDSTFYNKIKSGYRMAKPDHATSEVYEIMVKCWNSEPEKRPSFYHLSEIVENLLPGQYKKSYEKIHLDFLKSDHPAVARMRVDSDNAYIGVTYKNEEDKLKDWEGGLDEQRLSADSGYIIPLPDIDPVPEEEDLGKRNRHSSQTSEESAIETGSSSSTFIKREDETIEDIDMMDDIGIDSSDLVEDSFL

Substance | kinase activity towards exogenous substrate GST-PLCγ [3] | PDGF-dependent contraction [5] | potential to induce PVR (PVR score) [6] | further results
PDGF | – | – | – | PDGF-induced contraction [1]: triggered the same extent of contraction of the Fα and Fβ cells; tyrosine phosphorylation of the αPDGFR [2]: greatly increased the receptor's phosphotyrosine content
E587K: human αPDGFR point mutant, glutamic acid at position 587 changed to lysine; SEQ ID NO: 4 | comparable to the WT receptor | – | – | –
F720: αPDGFR mutant, Tyr to Phe substitution at 720 | – | somewhat reduced response | induced PVR similarly to the WT receptor-expressing cells | recruitment of SHP-2 (Properties) [4]: failed to efficiently associate; also recorded: Fails to recruit SHP-2
F1018: αPDGFR mutant, Tyr to Phe substitution at 1018 | – | severely compromised contraction | significantly reduced | recruitment or activation of PLCγ (Properties) [7]: failed to efficiently associate; also recorded: Fails to recruit or activate
T665M: human αPDGFR point mutant, threonine at position 665 changed to methionine; SEQ ID NO: 6 | more active than the WT receptor | – | – | –
